According to patent US7091185B2, “Periodic antimicrobial peptides” (Dow Global Technologies Inc., priority 2003, dated 2006):
Where two headings read alike, the source gives them in different places. Where no end group is shown, it is not given here.

How the values were obtained:
Red blood cells (RBC) = assay: Red blood cell toxicity; type: cell-based
Red blood cell toxicity = type: cell-based; conditions: red blood cells (RBC); RBCs; concentration required for 50% toxicity; read-out: TX50
T. vaginalis = conditions: background statement; cited from earlier work
[1] = tested on: rat prostate adenocarcinoma; conditions: rat prostate adenocarcinoma model, cited from earlier work
[2] = tested on: herpes simplex virus (HSV); conditions: mixed with a modified lipid octyl-glycerol; compared with magainins and defensins; cited from earlier work
P. aeruginosa = conditions: background statement; cited from earlier work
Cr. Neoformans 32045 = type: cell-based
In short: (§1)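 Broth microdilution per NCCLS, adapted for fungi with Sabouraud Dextrose Broth; KFAK-repeat peptide multimers in two-fold dilutions from 1,000 to 1 μg/ml. Growth by OD620 after overnight incubation; IC50 by sigmoidal fit, in duplicate, repeated at least twice.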

C. albicans 10231 = type: cell-based; conditions: 10231
In short: as §1

C. trachomatis = conditions: background statement; cited from earlier work
HeLa cell line = assay: HeLa MTS cellular reduction toxicity assay; type: cell-based; conditions: for TX50: 24 h, MTS
In short: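 HeLa cells grown 48 h, then exposed to serial 2-fold peptide dilutions for 24 h at 37 °C, 5% CO2. MTS-PMS added for 1 h; absorbance at 490 nm compared with untreated cells. TX50 (50% toxicity concentration) from sigmoidal curve fit.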

P. aeruginosa ATCC 10145 = conditions: ATCC 10145
E. coli ATCC 2592 = conditions: ATCC 2592
[3] = tested on: S. aureus (methicillin resistant) ATCC 33591
[4] = tested on: P. aeruginosa ATCC 15442 / Staph. aureus ATCC 6538; assay: HMARQ biocidal testing; type: cell-based; conditions: summary of Table 6; peptides too small to span the membrane
Protocol: Biocide efficacy protocols were improved by reducing sample size, organizing the test material into an array format, implementing most probable number (MPN) quantitation and using multi-channel liquid handling equipment. We call the new method “high-throughput microanalysis and rapid quantitation” or “HMARQ.” HMARQ is directly applicable to current industrial efficacy tests such as multi-cycle preservation challenge or time course disinfection tests.
HMARQ is performed in a high throughput plate, such as 96-well microtiter plates. Typical sample volumes have been reduced down to 200 to 300 μL, but can be reduced further if desired. In these samples, no more than 10% of the total volume will be composed of the biocide and organism solution, and all non-matrix additions are normalized for all samples.
The sample matrix is first inoculated with the desired concentration of microorganisms. Inoculated sample matrix is then added to the 96-well assay block containing the biocide(s) under study. Each sample block contains biocide treated samples and untreated control samples (lacking biocide). Once the samples are prepared, the entire block of samples is mixed by vortexing until each sample is homogenous. In general, the study starts once mixing is complete, and samples are removed as required for the analysis. When Kill Time testing (rate of biocide activity) is performed, the microorganisms are added after biocide addition to the samples, allowing for rapid mixing and analysis.
Bacterial concentration (CFU/mL) is determined using the most probable number method (MPN). […] A serial 1:10 dilution will yield a bacterial concentration resolution of 1 log and the log reduction is determined by comparing the concentration of organisms in a treated sample to the concentration of organisms in untreated samples. […]
Using the HMARQ test described above, periodic peptides were generated and tested for Kill Activity. […] Units are expressed as ppm (μg/mL) needed for 3.5 log kill at 15 min or 24 hour and the results are shown below.

P. aeruginosa ATCC 15442 [5] = assay: HMARQ biocidal kill activity; type: cell-based; conditions: P. aeruginosa ATCC 15442 (gram−)
In short: (§2)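 Inoculated sample matrix (200–300 μL) added to biocide in 96-well blocks alongside untreated controls; for kill-time runs organisms added after biocide. Viable counts by MPN serial 1:10 dilution in TSB with 50 μM resazurin indicator; values are ppm (μg/mL) giving 3.5 log kill versus untreated at 15 min or 24 h.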

Staph. aureus ATCC 6538 [6] = assay: HMARQ biocidal kill activity; type: cell-based; conditions: Staph. aureus ATCC 6538 (gram+)
In short: as §2

Staph. aureus ATCC 6538 [7] = assay: HMARQ biocidal kill activity; type: cell-based; conditions: Staph. aureus ATCC 6538, 15 min, 3 log kill
P. aeruginosa ATCC 15442 [8] = assay: HMARQ biocidal kill activity; type: cell-based; conditions: P. aeruginosa ATCC 15442, 15 min, 3 log kill
[9] = S. aureus (methicillin resistant) 33591, gram+

Row | Substance | % kill at 250 μg/ml (Red blood cells (RBC); RBCs, 250 μg/ml) | HC50 at 24 h (Red blood cell toxicity) | IC50 (Cr. Neoformans 32045) | MIC (Cr. Neoformans 32045) | IC50 (C. albicans 10231) | MIC (C. albicans 10231) | % kill at 500 μg/ml (HeLa cell line) | TX50 (HeLa cell line) | IC50 (P. aeruginosa ATCC 10145) | IC50 (E. coli ATCC 2592) | MIC (E. coli ATCC 2592) | IC50 ([3]; ATCC 33591) | MIC ([3]; ATCC 33591) | biocidal activity (statement) [4] | ppm needed for 3.5 log kill at 15 min (P. aeruginosa ATCC 15442 [5]) | ppm needed for 3.5 log kill at 24 hr (P. aeruginosa ATCC 15442 [5]) | ppm needed for 3.5 log kill at 15 min (Staph. aureus ATCC 6538 [6]) | ppm needed for 3.5 log kill at 24 hr (Staph. aureus ATCC 6538 [6]) | ppm at 15 min, cell marked (3 log) (P. aeruginosa ATCC 15442 [8]) | MIC (P. aeruginosa ATCC 10145) | further results
1 | FAKKFAKKFKKFAKKFAKFAFAF [D2A21, reference compound] | 93.1% | 52 µg/mL | 21.9 µg/mL | 62 to 125 µg/mL | 121.5 µg/mL | >250 µg/mL | 7.1% | 16.9 µg/mL | 11.3 µg/mL | 4.5 µg/mL | 8 to 16 µg/mL | 11.9 µg/mL | 62 to 125 µg/mL | – | – | – | – | – | – | – | activity (statement) (T. vaginalis): has activity against; survival rate ([1]; improved from 25%, preliminary results (Arlotti 2001)): 75%; toxicities [1]: not causing any significant toxicities; activity against HSV compared with other peptides [2]: better than five other peptides; activity (statement) (P. aeruginosa): has activity against; activity (statement) (C. trachomatis): has activity against
2 | FKA FKA FKA FKA (FKAFKAFKAFKA; Periodic Peptide) [FKA(4)] | – | – | – | – | – | – | – | – | – | – | – | – | – | demonstrate biocidal activity | >500 ppm | 125 ppm | 4 ppm | 250 ppm | – | – | –
3 | KFAK KFAK KFAK KFAK KFAK KFAK KFAK KFAK KFAK KFAK KFAK KFAK (KFAKKFAKKFAKKFAKKFAKKFAKKFAKKFAKKFAKKFAKKFAKKFAK; Periodic Peptide) [KFAK(12)] | – | – | – | – | – | – | – | – | – | – | – | – | – | – | 16 ppm | 31 ppm | – | >500 ppm | – | – | ppm at 15 min, cell marked (3 log) (Staph. aureus ATCC 6538 [7]): 31(3 log) ppm
4 | LK LK (LKLK; Periodic Peptide) [LK(2)] | – | – | – | – | – | – | – | – | – | – | – | – | – | demonstrate biocidal activity | >500 ppm | 250 ppm | >500 ppm | 16 ppm | – | – | –
5 | LKLKLKLKLKLKLKLKLKLKLKLK [LK (12), LK LK LK LK LK LK LK LK LK LK LK LK] | – | > 500 µg/mL | 22 µg/mL | 32 to 62 µg/mL | 175 µg/mL | 250 to 500 µg/mL | 60.0% | 49 µg/mL | 41 µg/mL | 23 µg/mL | 62 to 125 µg/mL | 85 µg/mL | >250 µg/mL | – | – | 4 ppm | 4 ppm | 8 ppm | 16 (3 log) ppm | 45 µg/mL | % kill at 250 μg/ml (Red blood cells (RBC)): 35%
6 | LRLRLRLRLRLRLRLRLR [LR (9), LR LR LR LR LR LR LR LR LR] | 24% | > 500 µg/mL | 21 µg/mL | 62 to 125 µg/mL | 195 µg/mL | 250 to 500 µg/mL | 96.7% | >500 µg/mL | >250 µg/mL | 70 µg/mL | >125 µg/mL | – | – | – | – | 4 ppm | 16 ppm | 8 ppm | 31(3 log) ppm | >250 µg/mL | IC50 [3, 9]: 28 µg/mL; MIC [3, 9]: 125 to 250 µg/mL
